Reference: patent publication US6121055A, “Methods and devices for conducting specific binding assays” (priority 1995, dated 2000)
Structures can show the parent of a compound that is named as a salt.

What was measured:
[1] = cited from earlier work; for SOLUBILITY (parts H2O): Table 1, numeric; for SOLUBILITY (in words): Table 1, water; for SOL. IN PARTS H2O: Table 2
[2] = test system: antisera to synthetic hTGF-a (1-50); assay: RIA for human TGF-a using antisera recognizing the complete, bioactive synthetic hormone; assay type: binding, rabbit
Protocol: (D) RIA for Human TGF-a Using Antisera Recognizing the Complete, Bioactive Synthetic Hormone Synthesis of hTGF-a (1-50) Peptide and Immunization:
The sequence of human TGF-a as determined by DeRynck et al. (Cell 38:287-297, 1985) was used to synthesize the low molecular weight form of the hormone (residues 1-50) using an automated instrument (Biosearch). The resultant peptide was used to immunize rabbits repeatedly using 0.5 mg of peptide at multiple sites.
The assay used reference standards and radio-iodinated tracer prepared from purified, bioactive synthetic rat TGF-alpha (Peninsula Laboratories, Belmont, Calif.). Label cocktail was prepared by mixing, in 1.5 L total volume, 300 L 10×buffer (0.5 M Hepes, 2 mg/L BSA, 0.2% sodium azide), 600 L 10% nonidet P-40 (Shell Oil Co.), 580 L distilled water, and 30 L of labeled peptide (rTGF-a, 800,000 CPM). The antibody suspension was prepared essentially as described in (A) above. To each 0.4 L tube containg 0.25-0.3 L cushions of butyl phthalate was added 25 L of label cocktail, 50 L of sample, and 25 L of antibody suspension. Where indicated, 10 L of 1M DTT (freshly dissolved in 0.5M sodium bicarbonate) was added to each assay mixture. After mixing, the tubes were incubated overnight at 4° C., then processed as described in (A) except that the detection instrument was a gamma counter (Abbott Model 200).

[3] = test system: anti-fragment antisera (rat TGF-a c-terminal peptide); assay: TGF-a RIA: bioactive peptides & methyl cinnamate cushions; assay type: binding, rabbit
Protocol: (§1) All assays employed as assay vessels 0.4 L microcentrifuge tubes containing 0.25-0.3 L of cushion material. Labeled peptide was produced by chloramine Tiodination (specific activity ranged from 200-500 Ci/g). Unless otherwise specified, all solid phases were prepared using S. aureus suspensions. Centrifugations were for 30-60 seconds in a microcentrifuge at approximately 10,000×g.
(§2) (B) RIA Using Anti-Fragment Antisera and Bioactive Syntheticpeptide as Tracer and Reference Standard, with Methylcinnamate Cushions and Assay Reactants Predispensed.
(§3) Trans-methyl cinnamate (Table 1, item 11, Aldrich Chemical Co., St. Louis, Mo.) was melted by brief heating in a microwave oven just prior to dispensing into assay vessels. The cushion solidified spontaneously at room temperature. The solid phase was prepared as in (A) above in double strength assay buffer (including 4% NP-40 nonionic detergent). This suspension was stable at 4° C. for at least one year. Label cocktail (1.5 L) was prepared using 0.3 L 10×assay buffer (minus nonionic detergent), 0.6 L 10% NP-40, 0.58 L distilled water, and 30 L label concentrate (600,000 CPM) prepared from bioactive synthetic rat TGF-alpha (res. 1-50).
(§4) Into each assay was loaded 50 L of reference standard sample (bioactive, synthetic rat TGF-alpha, res. 1-50), 25 L of label cocktail, followed by 25 L of solid phase suspension. Where indicated, all assay reactants were predispensed and equilibrated for at least 3 days at 4 C prior to initiation of the assay by sample addition and mixing. After the indicated incubation periods, assay vessels were centrifuged and counted using radiation shields (FIG. 3, lacking disk 52) in an gamma counter (Abbott Model 200).
Two temperature and mixing treatments were compared with four incubation times. One treatment consisted of incubating at 32° C., just below the melting temperature of the cushion, and mixing at 15 minute intervals. The second treatment consisted of incubating at 40° C., above the melting temperature of the cushion, with mixing only at initiation of incubation (prior to warming). Both assays yielded low nonspecific binding, high specific binding, and high competition with reference standards, even after only 30 minutes of incubation.

[4] = test system: anti-fragment antisera (rat TGF-a c-terminal peptide); assay: TGF-a RIA: predispensed reactants & methyl cinnamate cushions; assay type: binding, rabbit
Protocol: as §1, §2, §3, §4

anti-digoxin antibody = assay: Enzyme immunoassay for digoxin; assay type: binding, rabbit
Text: An enzyme-labelled digoxin assay using the method of the present invention is adapted from a commercial digoxin kit (Immunotech, Allston, Mass.). The only changes in reagents are the inclusion of 20% sorbitol in the color developer solution, and the substitution of 50 microliters of Tachisorb-R (Behring Diagnostics, La Jolla, Calif.) for the 500 microliters of precipitating solution (goat-anti rabbit IgG) provided with the kit.
In two mL, screw-top microcentrifuge tubes (Sarstedt, Princeton, N.J.), 1 mL of sorbitol-color developer is dispensed, then overlaid with 0.4 mL of dibutyl phthalate. A 200 microliter assay mixture is prepared by adding 100 microliters of Tachisorb-R, 25 microliters of digoxin-enzyme (alkaline phosphatase) conjugate, 25 microliters of sample (serum-based standards), and 50 microliters of antibody solution. The assay is incubated at room temperature for 15 minutes, centrifuged two minutes at 10,000×g, and further incubated one hour for color development.
Color is measured at 400 nm in a Shimadzu Model UV-160 spectrophotometer. Because of the opacity of the polypropylene tubes, results for each tube are corrected for nonspecific absorbance at 500 nm.

[5] = REDUCED WITH DTT, 1.25 nM in assay

## COC(=O)C(=O)OC [DIMETHYL OXALATE]
[1]
  SOLUBILITY (parts H2O): 17 parts H2O

## BIOLOGICAL TGFALPHA: BIOLOGICAL TGFALPHA, PARTIALLY PURIFIED FROM CULTURE FLUIDS (A375 CELLS)
[2]; [5]
  PERCENTAGE OF MAXIMAL BINDING, corrected for nonspecific binding: 63.3%
[2]; UNREDUCED, 1.25 nM in assay
  PERCENTAGE OF MAXIMAL BINDING, corrected for nonspecific binding: 89.7%

## CCOC(=O)CC(=O)c1ccccc1 [ETHYL BENZOYLACETATE]
[1]
  SOLUBILITY (in words): INSOL

## CCOC(=O)/C=C\C(=O)OCC [DIETHYL MALEATE]
[1]
  SOLUBILITY (in words): INSOL

## CCOC(=O)[C@H](O)[C@@H](O)C(=O)OCC [DIETHYL L-TARTRATE]
[1]
  SOLUBILITY (in words): slightly

## CCOC(=O)CC(=O)C(=O)OCC [ETHYL OXALACETATE]
[1]
  SOLUBILITY (in words): INSOL

## [Cl-].[Li+] [LITHIUM CHLORIDE]
[1]
  SOL. IN PARTS H2O: 1.3 PARTS H2O

## CCOC(=O)CC(C)=O [ETHYL ACETOACETATE]
[1]
  SOLUBILITY (parts H2O): 35 parts H2O

## CC(O)CO (stereo not drawn) [PROPYLENE GLYCOL]
[1]; Table 2 comment
  miscibility: MISC WITH H2O, CHCL3

## COC(=O)CCC(=O)OC [DIMETHYL SUCCINATE]
[1]
  SOLUBILITY (parts H2O): 120 parts H2O

## CCOC(=O)C=Cc1ccccc1 [ETHYL CINNAMATE]
[1]
  SOLUBILITY (in words): INSOL

## RTGF, BIOACTIVE: purified, bioactive synthetic rat TGF-alpha (Peninsula Laboratories)
[2]; REDUCED WITH DTT, 0.15 nM in assay
  PERCENTAGE OF MAXIMAL BINDING, corrected for nonspecific binding: 93.8%
[2]; REDUCED WITH DTT, 0.32 nM in assay
  PERCENTAGE OF MAXIMAL BINDING, corrected for nonspecific binding: 87.1%
[2]; REDUCED WITH DTT, 0.62 nM in assay
  PERCENTAGE OF MAXIMAL BINDING, corrected for nonspecific binding: 79.9%
[2]; [5]
  PERCENTAGE OF MAXIMAL BINDING, corrected for nonspecific binding: 74.4%
[2]; REDUCED WITH DTT, 2.50 nM in assay
  PERCENTAGE OF MAXIMAL BINDING, corrected for nonspecific binding: 64.9%
[2]; REDUCED WITH DTT, 5.00 nM in assay
  PERCENTAGE OF MAXIMAL BINDING, corrected for nonspecific binding: 47.3%
[2]; UNREDUCED, 0.15 nM in assay
  PERCENTAGE OF MAXIMAL BINDING, corrected for nonspecific binding: 83.2%
[2]; UNREDUCED, 0.32 nM in assay
  PERCENTAGE OF MAXIMAL BINDING, corrected for nonspecific binding: 77.3%
[2]; UNREDUCED, 0.62 nM in assay
  PERCENTAGE OF MAXIMAL BINDING, corrected for nonspecific binding: 68.5%
[2]; UNREDUCED, 1.25 nM in assay
  PERCENTAGE OF MAXIMAL BINDING, corrected for nonspecific binding: 58.5%
[2]; UNREDUCED, 2.50 nM in assay
  PERCENTAGE OF MAXIMAL BINDING, corrected for nonspecific binding: 54.0%
[2]; UNREDUCED, 5.00 nM in assay
  PERCENTAGE OF MAXIMAL BINDING, corrected for nonspecific binding: 45.7%

## CCCCOC(=O)CC(O)(CC(=O)OCCCC)C(=O)OCCCC [BUTYL CITRATE]
[1]
  SOLUBILITY (in words): INSOL

## COC(=O)c1ccccc1O [METHYL SALICYLATE]
[1]
  SOLUBILITY (parts H2O): 1500 parts H2O

## CCCCOC(=O)c1ccccc1C(=O)OCCCC [DIBUTYL PHTHALATE]
[1]
  SOLUBILITY (parts H2O): 2500 parts H2O

## [Br-].[Li+] [LITHIUM BROMIDE]
[1]
  SOL. IN PARTS H2O: .6 PARTS H2O

## CCOC(=O)c1ccccc1O [ETHYL SALICYLATE]
[1]
  SOLUBILITY (in words): SLIGHTLY

## COC(=O)c1ccccc1 [METHYL BENZOATE]
[1]
  SOLUBILITY (in words): INSOL

## CCOC(=O)CC(=O)OCC [DIETHYL MALONATE]
[1]
  SOLUBILITY (parts H2O): 50 parts H2O

## COC(=O)c1ccco1 [METHYL FUROATE]
[1]
  SOLUBILITY (in words): SLIGHTLY

## synthetic rat TGF-alpha: bioactive, synthetic rat TGF-alpha, res. 1-50
[3]; 30 minutes, 32 C
  % bound with 0.3 nM sample: 21.9%
  % bound with 10 nM sample: 5.6%
[3]; 30 minutes, 40 C
  % bound with 0.3 nM sample: 23.8%
  % bound with 10 nM sample: 6.9%
[3]; 60 minutes, 32 C
  % bound with 0.3 nM sample: 25.2%
  % bound with 10 nM sample: 6.2%
[3]; 60 minutes, 40 C
  % bound with 0.3 nM sample: 29.4%
  % bound with 10 nM sample: 7.1%
[3]; 90 minutes, 32 C
  % bound with 0.3 nM sample: 26.2%
  % bound with 10 nM sample: 6.4%
[3]; 90 minutes, 40 C
  % bound with 0.3 nM sample: 32.9%
  % bound with 10 nM sample: 7.6%
[3]; 120 minutes, 32 C
  % bound with 0.3 nM sample: 25.6%
  % bound with 10 nM sample: 6.1%
[3]; 120 minutes, 40 C
  % bound with 0.3 nM sample: 35.8%
  % bound with 10 nM sample: 7.6%
[4]; 2.5 nM sample competition, total CPM = 7872
  label bound, CPM: 642 CPM
[4]; 2.5 nM sample, 120 minutes, 37 C
  % OF MAX. BOUND: 48.6%
[4]; 2.5 nM sample, 120 minutes, 37 C, N = 6
  LABEL BOUND: 8.2%

## C[C@H]1O[C@@H](O[C@H]2[C@@H](O)C[C@H](O[C@H]3[C@@H](O)C[C@H](O[C@H]4CC[C@@]5(C)[C@H](CC[C@@H]6[C@@H]5C[C@@H](O)[C@]5(C)[C@@H](C7=CC(=O)OC7)CC[C@]65O)C4)O[C@@H]3C)O[C@@H]2C)C[C@H](O)[C@@H]1O [digoxin]
anti-digoxin antibody; sample 1.0
  ABSORBANCE AT 400 nm (corrected): 150
anti-digoxin antibody; sample 2.0
  ABSORBANCE AT 400 nm (corrected): 100
anti-digoxin antibody; sample 4.0
  ABSORBANCE AT 400 nm (corrected): 80

## COC(=O)c1ccccc1C(=O)OC [DIMETHYL PHTHALATE]
[1]
  SOLUBILITY (parts H2O): 232 parts H2O

## CCCCOC(=O)C=Cc1ccccc1 [BUTYL CINNAMATE]
[1]
  SOLUBILITY (parts H2O): 200 parts H2O

## COC(=O)/C=C/c1ccccc1 [METHYL CINNAMATE]
[1]
  SOLUBILITY (in words): ALMOST INSOL
